Patent publication US9084793B2, “Methods for treating Alzheimer's disease by administering certain synthetic compounds” (BEIJING JOEKAI BIOTECHNOLOGY LLC, priority 2011, dated 2015)
“Also recorded” adds a separate entry of the source.

Experiments:
[1] = system: Aβ42 transgenic flies; assay: Pavlovian olfactory associative immediate memory in Aβ42 transgenic flies; type: in vivo, Drosophila; conditions: Aβ42 transgenic male flies, 7-day drug feeding, 50 μg/ml, tested day 10 after eclosion
Procedure: Behavioral screening was performed with 2000 synthetic compounds (purchased from TimTec LLC, USA) with structures that are presumably targeted to protein kinase activities (FIG. 1A). Only male flies were selected for 7-day drug treatment and then subjected to behavioral assay at day 10 after eclosion. […] Among them, 9 were tested in double transgenic mice and compounds were indicated to have positive results after 2 months of treatment (6- to 8-month-old) (FIG. 1A-G).

[2] = system: double transgenic mice (APPswe.PSEN1dE9); assay: Morris water maze in double transgenic AD-model mice; type: in vivo, mouse; conditions: two-month treatment (6- to 8-month-old), lavage once daily
[3] = target: T1, human EGFR expressed in COS-7 cells (Homo sapiens, UniProt P00533); assay: Normal p-EGFR level in EGFRwt-expressing COS-7 cells without oligomeric Aβ42 (Western blot); type: cell-based; conditions: 100 μg/ml compound, EGFRwt-expressing COS-7 cells without oligomeric Aβ42 peptides
T1 construct: expressed in transfected cells; host or cells: COS-7
Procedure: FIG. 2. […] 100 μg/ml JKF-006, JKF-011 and JKF-027 were used to treat EGFR^wt-expressing COS-7 cells without oligomeric Aβ42 peptides. […] N=3-4.
(§1) COS-7 cells were cultured in normal Dulbecco's Modified Eagle Medium (D-MEM) containing 10% fetal bovine serum (Invitrogen) at 37° C. in 5% CO2. Transfection of the cells with an EGFR^WT plasmid was performed following the Lipofectamine 2000 manuals (Invitrogen). After 48 h, cells were washed with fresh medium once and incubated with 10 or 25 μg/ml Aβ42 oligomers for 15 min at 37° C. in 5% CO2. 0.5 μg/ml human EGF (Sigma) was used as a positive control. Cells were then washed with PBS for 3 times and collected.
(§2) Whole fly head or cells lysates were prepared using a RIPA buffer containing 0.3% SDS, 50 mM Tris-HCl, pH 7.4, 0.5% NP-40, 1% sodium deoxycholate, 150 mM NaCl, 5 mM EDTA, 1 tablet per 50 ml complete protease inhibitor cocktail (Roche Diagnostics). Lysates were diluted in an SDS sample buffer and separated on 10-20% Tris-Tricine gels (Invitrogen), and transferred to nitrocellulose membranes (Invitrogen). The membranes were boiled in PBS for 3 min, blocked with 5% non-fat dry milk and blotted with a first antibody. First antibodies used included mouse anti-Aβ42 (6E10, Covance Research Products), mouse anti-dEGFR (Abcam), rabbit anti-hEGFR (Cell Signaling), mouse anti-hEGFR-p (Cell Signaling) and rabbit anti-Actin (Sigma). Data were analyzed with the ImageJ software (National Institutes of Health).

[4] = target: T1, human EGFR expressed in COS-7 cells; assay: Oligomeric Aβ42-induced phosphorylation of EGFR in COS-7 cells transfected with EGFRwt plasmid (Western blot); type: cell-based; conditions: 10 μg/ml oligomeric Aβ42, COS-7 cells transfected with EGFRwt plasmid
Procedure: as §1
The preparation procedure was described previously (Dahlgren K, et al., J Biol Chem. 277:32046-53, 2002). Synthetic and recombinant wild type Aβ42 (AnaSpec, Inc.) was initially dissolved to 1 mM in hexafluoroisopropanol (Sigma).
Hexafluoroisopropanol was removed under vacuum in a Speed Vac, and the peptide film was stored at −20° C. For oligomer preparation, the peptide was first resuspended in DMSO to a concentration of 12.5 mg/ml and then diluted with DMEM/F-12 (phenol red-free, Invitrogen) to a final concentration of 500 μg/ml and incubated at 4° C. for 24 h.
as §2
Behavioral screening was performed with 2000 synthetic compounds (purchased from TimTec LLC, USA) with structures that are presumably targeted to protein kinase activities (FIG. 1A). […]

Compound	Rescue/prevention of Aβ42-induced memory loss (performance index) [1]	Rescue of Aβ-induced memory loss (Morris water maze) ([2]; 55 mg/kg/day)	Effect on normal (endogenous) p-EGFR level [3]	Effect on oligomeric Aβ42-induced increase of p-EGFR activity [4]	Rescue of Aβ-induced memory loss (Morris water maze) ([2]; 58 mg/kg/day)	Rescue of Aβ-induced memory loss (Morris water maze) ([2]; 14 mg/kg/day)
2-Propenamide, 2-cyano-N-[2-(1H- indol-3-yl)ethyl]-3-[5- (4-morpholinyl)-2- furanyl]- [JKF-027]	effective in rescuing memory loss	Rescue of Aβ-induced memory loss; also recorded: effective results in rescuing the memory loss	None of the compounds changed the p-EGFR level; also recorded: incapable of affecting the endogenous p-EGFR level	capable of inhibiting induced p-EGFR activity; also recorded: significantly inhibit	–	–
N#C/C(=C/c1ccc(-c2cc(C(=O)O)ccc2Cl)o1)C(=O)Nc1ccc(F)cc1 [JKF-006, Benzoic acid, 4-chloro-3-[5-[2-cyano-3-[(4-fluorophenyl)amino]-3-oxo-1-propen-1-yl]-2-furanyl]-]	effective in rescuing memory loss	–	None of the compounds changed the p-EGFR level; also recorded: incapable of affecting the endogenous p-EGFR level	capable of inhibiting induced p-EGFR activity; also recorded: significantly inhibit	Rescue of Aβ-induced memory loss; also recorded: effective results in rescuing the memory loss	–
O=C1CNCCN1 [JKF-011, Piperazin-2-one]	effective in rescuing memory loss	–	None of the compounds changed the p-EGFR level; also recorded: incapable of affecting the endogenous p-EGFR level	capable of inhibiting induced p-EGFR activity; also recorded: significantly inhibit	–	Rescue of Aβ-induced memory loss; also recorded: effective results in rescuing the memory loss
